Source: PubChem BioAssay AID504341 (Southern Research Specialized Biocontainment Screening …, 2011)
The source made the active and inactive calls.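 The calls were made as follows: active = compounds blocking at least half of HIV-1 envelope-driven cell fusion at some tested dose; inactive = the rest.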

Tested on: MAGI-CCR5/HeLa-R5-16 cell fusion, beta-gal luminescence
Assay: inhibitors of R5 HIV-1 Env-mediated cell fusion, dose response, MAGI-CCR5/HeLa-R5-16 cells, beta-gal luminescence, 2% serum (AID 504341)

IC50	SMILES
> 100 µM (inactive)	O=C(O)c1ccc(C[n+]2c(-c3ccc([N+](=O)[O-])cc3)csc2Nc2ccccc2)cc1
2.96 µM	Cc1c2c(=O)n(-c3nc4ccccc4s3)nc-2cc(O)n1Cc1ccncc1
28.4 µM	O=C(O)c1ccc(C2Nc3ccc(S(=O)(=O)Nc4cc(Cl)ccc4Cl)cc3C3C=CCC32)cc1 (stereo not drawn)
33.3 µM	CCc1ccc(-n2cccc2/C=C2/C(=N)N3C(=NC2=O)SN=C3S(C)(=O)=O)cc1
3.54 µM	Cc1c2c(=O)n(-c3nc4ccccc4s3)nc-2cc(O)n1Cc1cccnc1
36.4 µM	CS(=O)(=O)C1=NSC2=NC(=O)/C(=C\c3cccn3-c3cccc(Cl)c3)C(=N)N21
34.5 µM	Cc1c2c(=O)n(-c3nc4ccccc4s3)nc-2cc(O)n1Cc1cccs1
15.5 µM	Cc1c2c(=O)n(-c3nc4ccccc4s3)nc-2cc(O)n1C1CC1
31.3 µM	CCOC(=O)C1=C(C)N=c2s/c(=C\c3ccc(OCC(=O)O)cc3)c(=O)n2C1c1ccc(OC)c(OCC)c1 (stereo not drawn)
29 µM	CCOC(=O)C1=C(C)N=c2sc(=Cc3ccc(OCC(=O)O)cc3)c(=O)n2C1c1ccc(OC)cc1OC (stereo not drawn)
46.4 µM	COc1ccc(-n2cccc2/C=C2/C(=N)N3C(=NC2=O)SN=C3S(C)(=O)=O)cc1Cl
> 100 µM (inactive)	O=C(O)CCC(C(=O)O)N1C(=O)/C(=C\c2ccco2)SC1=S (stereo not drawn)
> 100 µM (inactive)	O=C(O)CCCN1C(=O)/C(=C\c2ccc(-c3ccc(F)cc3)o2)SC1=S
39.2 µM	CCOC(=O)C1=C(C)N=c2sc(=Cc3ccc(OCC(=O)O)cc3)c(=O)n2C1c1ccc(F)cc1 (stereo not drawn)
> 100 µM (inactive)	COc1cccc(C2C(C(=O)Nc3ccccc3)=C(C)N=c3sc(=Cc4ccc(OCC(=O)O)cc4)c(=O)n32)c1 (stereo not drawn)
28.5 µM	CS(=O)(=O)C1=NSC2=NC(=O)/C(=C\c3cccn3-c3ccc(Br)cc3)C(=N)N21
39.5 µM	CCOc1ccc(-n2cccc2/C=C2/C(=N)N3C(=NC2=O)SN=C3S(C)(=O)=O)cc1
34.8 µM	CS(=O)(=O)C1=NSC2=NC(=O)/C(=C\c3cccn3-c3ccc(Cl)cc3)C(=N)N21
48.8 µM	CCOC(=O)C1=C(C)N=c2sc(=Cc3ccc(OCC(=O)O)cc3)c(=O)n2C1c1ccccc1OC (stereo not drawn)
63.1 µM	CCOC(=O)C1=C(C)N=c2sc(=Cc3ccc(OCC(=O)O)cc3)c(=O)n2C1c1ccccc1 (stereo not drawn)
> 100 µM (inactive)	Nc1sc2ccccc2[n+]1Cc1ccc(C(=O)O)cc1
> 100 µM (inactive)	O=C(O)c1ccc(C[n+]2c(-c3ccccc3)csc2Nc2ccccc2)cc1
23.5 µM	O=C(O)c1ccc([C@@H]2Nc3ccc(S(=O)(=O)Nc4cccc5ccccc45)cc3[C@@H]3C=CC[C@@H]32)cc1
49.9 µM	CS(=O)(=O)C1=NSC2=NC(=O)/C(=C\c3cccn3-c3cccc(F)c3)C(=N)N21
> 100 µM (inactive)	Cc1c2c(=O)n(-c3nc4ccccc4s3)nc-2cc(O)n1CCc1cccs1
> 100 µM (inactive)	COc1cccc(-n2cccc2/C=C2/C(=N)N3C(=NC2=O)SN=C3S(C)(=O)=O)c1
8.29 µM	O=C(O)CCCN1C(=O)/C(=C\c2ccc(-c3ccc(Cl)cc3)o2)SC1=S

IC50	SMILES
38.7 µM	COc1ccccc1NS(=O)(=O)c1ccc2c(c1)C1C=CCC1C(c1ccc(C(=O)O)cc1)N2 (stereo not drawn)
> 100 µM (inactive)	O=C(O)CCCN1C(=O)/C(=C/c2cc3ccccc3o2)SC1=S
33.1 µM	Cc1ccc(-n2cccc2/C=C2/C(=N)N3C(=NC2=O)SN=C3S(C)(=O)=O)cc1C
17 µM	COc1ccccc1Cn1c(O)cc2nn(-c3nc4ccccc4s3)c(=O)c-2c1C
5.19 µM	Cc1c2c(=O)n(-c3nc4ccccc4s3)nc-2cc(O)n1CCc1ccc(O)cc1
25.8 µM	CCOC(=O)C1=C(c2ccccc2)N=c2s/c(=C\c3ccc(OCC(=O)O)cc3)c(=O)n2C1c1cccc(OC)c1 (stereo not drawn)
56.8 µM	CC1=C(C(=O)OC(C)C)C(c2ccc(Cl)cc2)n2c(s/c(=C\c3ccc(OCC(=O)O)cc3)c2=O)=N1 (stereo not drawn)
46.6 µM	CS(=O)(=O)C1=NSC2=NC(=O)/C(=C\c3cccn3-c3cccc(C(F)(F)F)c3)C(=N)N21
24.5 µM	O=C(O)CCCN1C(=O)/C(=C/c2ccc(-c3cccc(C(F)(F)F)c3)o2)SC1=S
27.9 µM	CS(=O)(=O)C1=NSC2=NC(=O)/C(=C\c3cccn3-c3ccc(F)cc3)C(=N)N21
75.5 µM	CCOC(=O)C1=C(C)N=c2sc(=Cc3ccc(OCC(=O)O)cc3)c(=O)n2C1c1cc(OC)c(OC)c(OC)c1 (stereo not drawn)
36.6 µM	COc1ccc(-c2ccc(/C=C3\SC(=S)N(CCCC(=O)O)C3=O)o2)cc1
45.6 µM	Cc1c2c(=O)n(-c3nc4ccccc4s3)nc-2cc(O)n1Cc1ccccc1Cl
35.2 µM	CS(=O)(=O)C1=NSC2=NC(=O)/C(=C\c3cccn3-c3ccc(Cl)c(Cl)c3)C(=N)N21
34.9 µM	CCOC(=O)C1=C(C)N=c2s/c(=C\c3ccc(OCC(=O)O)cc3)c(=O)n2C1c1ccc(Cl)cc1 (stereo not drawn)
20 µM	Cc1c2c(=O)n(-c3nc4ccccc4s3)nc-2cc(O)n1Cc1ccc(F)cc1
15.3 µM	COc1ccc(Cn2c(O)cc3nn(-c4nc5ccccc5s4)c(=O)c-3c2C)cc1
29.1 µM	Cc1ccc(-c2ccc(/C=C3\SC(=S)N(CCCC(=O)O)C3=O)o2)cc1
39 µM	Cc1c2c(=O)n(-c3nc4ccccc4s3)nc-2cc(O)n1CCC(C)C
8.68 µM	O=C(O)CCCN1C(=O)/C(=C/c2ccc(-c3ccc(Cl)c(Cl)c3)o2)SC1=S
> 100 µM (inactive)	COc1ccc(CCn2c(O)cc3nn(-c4nc5ccccc5s4)c(=O)c-3c2C)cc1
28.5 µM	O=C(O)CCCN1C(=O)/C(=C\c2ccc(-c3cccc(Cl)c3)o2)SC1=S
32.3 µM	CS(=O)(=O)C1=NSC2=NC(=O)/C(=C\c3cccn3-c3cc(Cl)cc(Cl)c3)C(=N)N21
62.4 µM	CCc1ccc(-c2ccc(/C=C3\SC(=S)N(CCCC(=O)O)C3=O)o2)cc1
3.49 µM	O=C(O)CCCN1C(=O)/C(=C\c2ccc(-c3ccc(Br)cc3)o2)SC1=S
38 µM	Cc1ccc(-n2cccc2/C=C2/C(=N)N3C(=NC2=O)SN=C3S(C)(=O)=O)cc1
